The values that follow come from patent publication US20090105305A1, “Therapeutic Agents - 550” (AstraZeneca AB, priority 2006, published 2009).

Each structure is given as a SMILES string.

One experiment deals with T1, human Fatty Acid Synthase (Homo sapiens, UniProt P49327).
T1 construct: made in house
T1 sequence (P49327 whole entry): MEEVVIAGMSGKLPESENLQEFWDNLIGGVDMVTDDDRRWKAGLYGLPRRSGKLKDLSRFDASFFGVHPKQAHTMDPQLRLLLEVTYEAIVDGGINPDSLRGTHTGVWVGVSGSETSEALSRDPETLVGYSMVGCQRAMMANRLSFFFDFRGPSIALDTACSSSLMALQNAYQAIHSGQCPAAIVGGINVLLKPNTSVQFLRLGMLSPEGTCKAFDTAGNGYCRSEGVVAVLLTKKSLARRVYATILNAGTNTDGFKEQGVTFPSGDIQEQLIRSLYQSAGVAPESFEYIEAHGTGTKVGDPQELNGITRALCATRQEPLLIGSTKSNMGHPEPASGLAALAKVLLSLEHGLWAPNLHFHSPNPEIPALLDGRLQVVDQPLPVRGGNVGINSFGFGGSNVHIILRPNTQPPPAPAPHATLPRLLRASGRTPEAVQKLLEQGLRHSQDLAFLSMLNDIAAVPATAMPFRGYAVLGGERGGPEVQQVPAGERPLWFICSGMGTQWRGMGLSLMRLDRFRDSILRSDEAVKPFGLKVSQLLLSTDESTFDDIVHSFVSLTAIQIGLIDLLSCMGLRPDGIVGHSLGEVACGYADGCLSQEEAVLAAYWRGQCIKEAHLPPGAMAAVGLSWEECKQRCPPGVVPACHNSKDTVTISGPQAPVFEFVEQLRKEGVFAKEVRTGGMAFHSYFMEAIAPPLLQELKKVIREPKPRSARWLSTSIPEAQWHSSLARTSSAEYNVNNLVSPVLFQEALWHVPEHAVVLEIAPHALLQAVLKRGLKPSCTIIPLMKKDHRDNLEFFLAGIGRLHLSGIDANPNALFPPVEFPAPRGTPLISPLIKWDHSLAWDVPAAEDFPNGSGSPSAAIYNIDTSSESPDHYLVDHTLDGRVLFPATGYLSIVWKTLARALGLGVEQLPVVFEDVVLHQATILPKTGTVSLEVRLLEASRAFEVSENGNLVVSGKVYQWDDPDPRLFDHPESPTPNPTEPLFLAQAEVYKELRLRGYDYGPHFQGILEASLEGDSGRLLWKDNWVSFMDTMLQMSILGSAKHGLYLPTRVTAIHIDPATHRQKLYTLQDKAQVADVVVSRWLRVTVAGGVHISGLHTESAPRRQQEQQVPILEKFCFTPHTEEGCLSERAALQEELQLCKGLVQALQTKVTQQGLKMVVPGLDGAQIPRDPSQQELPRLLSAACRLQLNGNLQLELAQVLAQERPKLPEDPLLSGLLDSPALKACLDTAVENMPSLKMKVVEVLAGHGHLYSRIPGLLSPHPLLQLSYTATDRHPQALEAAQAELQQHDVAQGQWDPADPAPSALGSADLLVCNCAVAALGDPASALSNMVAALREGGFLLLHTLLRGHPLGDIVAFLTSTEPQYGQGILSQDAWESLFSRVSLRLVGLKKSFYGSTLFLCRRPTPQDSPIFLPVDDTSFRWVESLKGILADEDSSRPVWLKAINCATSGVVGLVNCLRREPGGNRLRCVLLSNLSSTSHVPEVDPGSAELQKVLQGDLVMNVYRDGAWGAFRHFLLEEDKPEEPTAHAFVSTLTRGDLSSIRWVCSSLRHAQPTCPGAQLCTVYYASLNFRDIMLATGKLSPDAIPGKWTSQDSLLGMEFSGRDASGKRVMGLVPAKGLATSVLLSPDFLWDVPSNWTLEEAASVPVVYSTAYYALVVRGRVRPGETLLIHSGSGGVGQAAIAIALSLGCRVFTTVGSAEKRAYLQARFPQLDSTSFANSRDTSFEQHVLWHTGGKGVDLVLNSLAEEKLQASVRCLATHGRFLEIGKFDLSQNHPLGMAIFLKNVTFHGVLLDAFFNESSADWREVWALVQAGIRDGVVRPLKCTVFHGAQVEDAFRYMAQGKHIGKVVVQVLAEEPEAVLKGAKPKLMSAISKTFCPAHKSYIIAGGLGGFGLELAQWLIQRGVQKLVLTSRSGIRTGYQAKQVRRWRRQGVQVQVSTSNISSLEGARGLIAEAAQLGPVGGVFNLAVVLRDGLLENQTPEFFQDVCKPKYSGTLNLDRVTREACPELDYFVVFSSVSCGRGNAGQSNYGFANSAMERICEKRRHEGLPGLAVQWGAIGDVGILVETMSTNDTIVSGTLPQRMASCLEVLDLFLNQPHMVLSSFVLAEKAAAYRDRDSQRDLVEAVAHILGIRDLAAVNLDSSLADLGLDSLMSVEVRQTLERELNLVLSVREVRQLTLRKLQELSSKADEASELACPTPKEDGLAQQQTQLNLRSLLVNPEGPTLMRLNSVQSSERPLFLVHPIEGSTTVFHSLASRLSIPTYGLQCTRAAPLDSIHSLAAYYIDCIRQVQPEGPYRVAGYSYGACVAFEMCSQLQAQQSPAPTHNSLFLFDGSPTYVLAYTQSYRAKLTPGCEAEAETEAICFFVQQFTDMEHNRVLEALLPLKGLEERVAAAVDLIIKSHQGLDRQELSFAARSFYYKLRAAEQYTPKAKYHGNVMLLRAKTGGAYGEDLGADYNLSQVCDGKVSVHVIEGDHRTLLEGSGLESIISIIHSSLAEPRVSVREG
Nature of the experiment: Human FAS enzyme assay (decrease in NADPH fluorescence). Format: biochemical. The following applies: % inhibition at a concentration of 100 micromolar. In short, it runs like this: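 In-house human FAS (0.4 μg) was preincubated 15 min at RT with compound and NADPH (added at 166.6 μM) in 0.1 M Tris pH 7.5, 1 mM glutathione, 0.05% BSA. Malonyl-/acetyl-CoA (500/150 μM in substrate mix) was then added for 60 min. Readout was NADPH fluorescence loss (ex 340/em 460) over a time-zero read, with IC50 from a sigmoid fit.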
For `Cc1ccc(C(=O)N2CCC(c3ccc(C(=O)NCCN(C)C)cc3)CC2)cc1NS(C)(=O)=O` [Example 222, N-(2-dimethylaminoethyl)-4-[1-(3-methanesulfonamido-4-methylbenzoyl)piperidin-4-yl]benzamide], the inhibition at 100 µM was 64%.
The same measure, in the same setting: as for `C[S+]([O-])c1ccc(C(=O)N2CCC(c3ccc(C#N)cc3)CC2)cc1NS(=O)(=O)Cc1ccccc1` (centres unmarked) [Example 211, N-[5-[4-(4-cyanophenyl)piperidine-1-carbonyl]-2-methylsulfinylphenyl]-1-phenylmethanesulfonamide], the figure is 92%.
With `CCc1ccc(C(=O)N2CCC(c3ccc(C#N)cc3)CC2)cc1NS(C)(=O)=O` [Example 123, N-[5-[4-(4-cyanophenyl)piperidine-1-carbonyl]-2-ethyl-phenyl]methanesulfonamide], the inhibition at 100 µM was determined as 85%.
As to `Cc1ccc(C(=O)N2CCC(c3ccc(C#N)cc3)CC2)cc1NS(=O)(=O)c1ccc(Cl)s1` [Example 19, 5-chloro-N-[5-[4-(4-cyanophenyl)piperidine-1-carbonyl]-2-methyl-phenyl]thiophene-2-sulfonamide], the inhibition at 100 µM turned out to be 96%.
Same read-out and setting: as for `Cc1ccc(C(=O)N2CCC(c3ccc(C#N)cc3)CC2)cc1NS(=O)(=O)c1c(Cl)nc2sccn12` [Example 101, 7-chloro-N-[5-[4-(4-cyanophenyl)piperidine-1-carbonyl]-2-methyl-phenyl]-4-thia-1,6-diazabicyclo[3.3.0]octa-2,5,7-triene-8-sulfonamide], the figure is 98%; as for `Cc1ccc(C(=O)N2CCC(c3ccc(C#N)cc3)CC2)cc1NS(=O)(=O)c1cccc(C(=O)NC(C)C)c1` [Example 85, 3-[[5-[4-(4-cyanophenyl)piperidine-1-carbonyl]-2-methyl-phenyl]sulfamoyl]-N-propan-2-yl-benzamide], 95%; as for `Cc1ccc(C(=O)N2CCC(c3ccc(C#N)cc3)CC2)cc1NS(=O)(=O)C1CCN(S(C)(=O)=O)CC1` [Example 121, N-[5-[4-(4-cyanophenyl)piperidine-1-carbonyl]-2-methyl-phenyl]-1-methylsulfonyl-piperidine-4-sulfonamide], 89%.
Same read-out and setting: as for `Cc1ccc(C(=O)N2CCC(c3ccc(C#N)cc3)CC2)cc1NS(=O)(=O)CCNC(=O)c1ccccc1` [Example 86, N-[2-[[5-[4-(4-cyanophenyl)piperidine-1-carbonyl]-2-methyl-phenyl]sulfamoyl]ethyl]benzamide], the figure is 100%; as for `CC(=O)Nc1ccc(S(=O)(=O)Nc2cc(C(=O)N3CCC(c4ccc(C#N)cc4)CC3)ccc2C)cc1` [Example 22, N-[4-[[5-[4-(4-cyanophenyl)piperidine-1-carbonyl]-2-methyl-phenyl]sulfamoyl]phenyl]acetamide], 95%.
Same read-out and setting: as for `CCC(=O)NCc1ccc(C2CCN(C(=O)c3ccc(C)c(NS(C)(=O)=O)c3)CC2)cc1` [Example 225, N—[[4-[1-(3-methanesulfonamido-4-methylbenzoyl)piperidin-4-yl]phenyl]methyl]propanamide], the figure is 89.1%; as for `CCCC(C)S(=O)(=O)Nc1ccc(C)c(C(=O)N2CCC(c3ccc(C#N)cc3)CC2)c1` (centres unmarked) [Example 59, N-[3-[4-(4-cyanophenyl)piperidine-1-carbonyl]-4-methyl-phenyl]pentane-2-sulfonamide], 89%; as for `Cc1ccc(C(=O)N2CCC(c3ccc(C#N)cc3)CC2)cc1NS(=O)(=O)c1ccccc1C(=O)NCCO` [Example 207, 2-[[5-[4-(4-cyanophenyl)piperidine-1-carbonyl]-2-methylphenyl]sulfamoyl]-N-(2-hydroxyethyl)benzamide], 75%.
As to `Cc1ccc(C(=O)N2CCC(c3ccc(C#N)cc3)CC2)cc1NS(=O)(=O)CCCNS(=O)(=O)C(C)C` [Example 131, N-[5-[4-(4-cyanophenyl)piperidine-1-carbonyl]-2-methyl-phenyl]-3-(propan-2-ylsulfonylamino)propane-1-sulfonamide], the inhibition at 100 µM was 91%.
On the same count and under the same terms, as for `Cc1ccc(C(=O)N2CCC(O)(c3ccc(C#N)cc3)CC2)cc1NS(=O)(=O)Cc1ccccc1` [Example 70, N-[5-[4-(4-cyanophenyl)-4-hydroxy-piperidine-1-carbonyl]-2-methyl-phenyl]-1-phenyl-methanesulfonamide], the figure is 87%.
As for `Cc1ccc(NS(=O)(=O)c2ccc(C#N)cc2)cc1C(=O)N1CCC(c2ccc(C#N)cc2)CC1` [Example 49, 4-cyano-N-[3-[4-(4-cyanophenyl)piperidine-1-carbonyl]-4-methyl-phenyl]benzenesulfonamide], the inhibition at 100 µM was 83%.
The same measure, in the same setting: as for `CCc1ccc(C(=O)N2CCC(c3ccc(C#N)cc3)CC2)cc1NS(=O)(=O)C1CCS(=O)(=O)C1` (centres unmarked) [Example 124, N-[5-[4-(4-cyanophenyl)piperidine-1-carbonyl]-2-ethyl-phenyl]-1,1-dioxo-thiolane-3-sulfonamide], the figure is 82%; as for `Cc1ccc(C(=O)N2CCC(c3ccc(F)cc3)CC2)cc1NS(C)(=O)=O` [Example 213, N-[5-[4-(4-fluorophenyl)piperidine-1-carbonyl]-2-methylphenyl]methanesulfonamide], 71%.
Consider `COC(=O)CS(=O)(=O)NCc1ccc(C2CCN(C(=O)c3ccc(C)c(NS(C)(=O)=O)c3)CC2)cc1` [Example 245, Methyl 2-[[4-[1-(3-methanesulfonamido-4-methylbenzoyl)piperidin-4-yl]phenyl]methylsulfamoyl]acetate], for which the inhibition at 100 µM turned out to be 104%.
Take `COC(=O)C(C)S(=O)(=O)Nc1cc(C(=O)N2CCC(c3ccc(C#N)cc3)CC2)ccc1C` (centres unmarked) [Example 137, Methyl 2-[[5-[4-(4-cyanophenyl)piperidine-1-carbonyl]-2-methyl-phenyl]sulfamoyl]propanoate]: the inhibition at 100 µM stood at 97%.
The same measure, in the same setting: as for `Cc1ccc(C(=O)N2CCC(c3ccc(C#N)cc3)CC2)cc1NS(=O)(=O)CC1CCCC1` [Example 16, N-[5-[4-(4-cyanophenyl)piperidine-1-carbonyl]-2-methyl-phenyl]-1-cyclopentyl-methanesulfonamide], the figure is 95%; as for `Cc1ccc(C(=O)N2CCC(c3ccc(C#N)cc3)CC2)cc1NS(=O)(=O)c1cccc(C(=O)NCCO)c1` [Example 84, 3-[[5-[4-(4-cyanophenyl)piperidine-1-carbonyl]-2-methyl-phenyl]sulfamoyl]-N-(2-hydroxyethyl)benzamide], 92%.
As for `COc1ccc(C(=O)N2CCC(c3ccc(C#N)cc3)CC2)cc1NS(C)(=O)=O` [Example 6, N-[5-[4-(4-cyanophenyl)piperidine-1-carbonyl]-2-methoxy-phenyl]methanesulfonamide], the inhibition at 100 µM stood at 75%.
On the same count and under the same terms, as for `Cc1nc(C)c(S(=O)(=O)Nc2cc(C(=O)N3CCC(c4ccc(C#N)cc4)CC3)ccc2C)s1` [Example 106, N-[5-[4-(4-cyanophenyl)piperidine-1-carbonyl]-2-methyl-phenyl]-2,4-dimethyl-1,3-thiazole-5-sulfonamide], the figure is 95%; as for `N#Cc1ccc(C2CCN(C(=O)c3ccc(Cl)c(NS(=O)(=O)c4ccc(Cl)cc4)c3)CC2)cc1` [Example 192, 4-chloro-N-[2-chloro-5-[4-(4-cyanophenyl)piperidine-1-carbonyl]phenyl]benzene-sulfonamide], 67%; as for `Cc1ccc(C(=O)N2CCC(c3ccc(-c4cnccn4)cc3)CC2)cc1NS(C)(=O)=O` [Example 174, N-[2-methyl-5-[4-(4-pyrazin-2-ylphenyl)piperidine-1-carbonyl]phenyl]methanesulfonamide], 92%.
With `Cc1ccc(C(=O)N2CCC(c3ccc(C#N)cc3)CC2)cc1NS(=O)(=O)c1ccc(=O)[nH]c1` [Example 102, N-[5-[4-(4-cyanophenyl)piperidine-1-carbonyl]-2-methyl-phenyl]-6-oxo-1H-pyridine-3-sulfonamide], the inhibition at 100 µM amounted to 81%.
Still for that read-out and setting: next, `Cc1ccc(C(=O)N2CCC(c3ccc(C#N)cc3)CC2)cc1NS(=O)(=O)c1ccccc1C#N` [Example 20, 2-cyano-N-[5-[4-(4-cyanophenyl)piperidine-1-carbonyl]-2-methyl-phenyl]benzenesulfonamide]: 85%; `Cc1ccc(C(=O)N2CCC(c3ccc(C#N)cc3)CC2)cc1NS(=O)(=O)CC(=O)O` [Example 130, 2-[[5-[4-(4-cyanophenyl)piperidine-1-carbonyl]-2-methyl-phenyl]sulfamoyl]acetic acid]: 77%.
On to `CSc1ccc(C(=O)N2CCC(c3ccc(C#N)cc3)CC2)cc1NS(=O)(=O)Cc1ccccc1` [Example 160, N-[5-[4-(4-cyanophenyl)piperidine-1-carbonyl]-2-methylsulfanylphenyl]-1-phenylmethanesulfonamide], for which the inhibition at 100 µM was 89%.

The same experiment, now with this note: compounds excluded from the claims by proviso.
As for `COc1cccc(C2CCN(C(=O)c3ccc(C)c(NS(C)(=O)=O)c3)CC2)c1` [N-[5-[4-(3-methoxyphenyl)piperidine-1-carbonyl]-2-methylphenyl]methanesulfonamide], the “IC50s in the range of about 0.001 μM to about 30 μM” value was “do not have IC50s in the range of about 0.001 μM to about 30 μM”.
Consider `Cc1ccc(C(=O)N2CCC(O)(c3cccc(C(F)(F)F)c3)CC2)cc1NS(C)(=O)=O` [N-[5-[4-hydroxy-4-[3-(trifluoromethyl)phenyl]piperidine-1-carbonyl]-2-methylphenyl]methanesulfonamide], for which the “IC50s in the range of about 0.001 μM to about 30 μM” value is reported as “do not have IC50s in the range of about 0.001 μM to about 30 μM”.

The same experiment, now with this note: unit inferred.
As for `COCCOCC#Cc1ccc(C2CCN(C(=O)c3ccc(C)c(NS(C)(=O)=O)c3)CC2)cc1` [Example 247, N-[5-[4-[4-[3-(2-methoxyethoxy)prop-1-ynyl]phenyl]piperidine-1-carbonyl]-2-methylphenyl]methanesulfonamide], 1780 nM corresponded to half-maximal inhibition (IC50).

Usually inhibition stands for the relative decrease from the control value, in per cent. One may read the IC50 as the point on the concentration scale where inhibition reaches its midpoint. Higher therefore signals a need for much substance.
